Results taken from the supplement of paper PMC5908809.

How the values were obtained:
[1] = tested on: normal NK cells expanded with K562-aAPC; experiment: drug sensitivity score (DSS) (DSS units); higher = more sensitive; extreme values may be limits of the assay; details: 72 h; IL-2 2.5 ng/mL
Description: (§1)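 Drug sensitivity and resistance testing on K562-aAPC-expanded normal NK cells: 5 concentrations (10-fold steps over a 10,000-fold range), 72 h at 37 °C, viability by CellTiter-Glo normalised to DMSO and benzethonium chloride controls; DSS from the fitted curve.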

[2] = tested on: DERL-7 (IL-2 2.5 ng/mL); experiment: percent inhibition of viability; higher = more inhibition; details: 72 h
[3] = tested on: normal primary NK cells, pool 1 (3 donors) (IL-2 2.5 ng/mL); experiment: as above; details: 72 h
[4] = tested on: NKL (IL-2 2.5 ng/mL); experiment: as above; details: 72 h
[5] = tested on: normal primary NK cells, pool 1 (3 donors), resting (IL-2 0 ng/mL); experiment: as above; details: 72 h
[6] = tested on: SNK-6 (IL-2 2.5 ng/mL); experiment: as above; details: 72 h
[7] = tested on: normal primary NK cells, pool 3 (3 donors) (IL-2 2.5 ng/mL); experiment: as above; details: 72 h
[8] = tested on: KAI3 (IL-2 2.5 ng/mL); experiment: as above; details: 72 h
[9] = tested on: YT (IL-2 2.5 ng/mL); experiment: as above; details: 72 h
[10] = tested on: KHYG-1 (IL-2 2.5 ng/mL); experiment: as above; details: 72 h
[11] = tested on: IMC-1 (IL-2 20 ng/mL); experiment: as above; details: 72 h
[12] = tested on: NK-YS (IL-2 2.5 ng/mL); experiment: as above; details: 72 h
[13] = tested on: normal primary NK cells, pool 2 (3 donors) (IL-2 2.5 ng/mL); experiment: as above; details: 72 h
[14] = tested on: NK-92 (IL-2 2.5 ng/mL); experiment: as above; details: 72 h
[15] = tested on: normal NK cells expanded with K562-aAPC; experiment: as above; details: 72 h, IL-2 2.5 ng/mL
Description: as §1

[16] = tested on: DERL-7 (IL-2 2.5 ng/mL); experiment: drug sensitivity score (DSS) (DSS units); higher = more sensitive; extreme values may be limits of the assay; details: 72 h
[17] = tested on: normal primary NK cells, pool 1 (3 donors) (IL-2 2.5 ng/mL); experiment: as above; details: 72 h
[18] = tested on: NKL (IL-2 2.5 ng/mL); experiment: as above; details: 72 h
[19] = tested on: normal primary NK cells, pool 1 (3 donors), resting (IL-2 0 ng/mL); experiment: as above; details: 72 h
[20] = tested on: SNK-6 (IL-2 2.5 ng/mL); experiment: as above; details: 72 h
[21] = tested on: normal primary NK cells, pool 3 (3 donors) (IL-2 2.5 ng/mL); experiment: as above; details: 72 h
[22] = tested on: KAI3 (IL-2 2.5 ng/mL); experiment: as above; details: 72 h
[23] = tested on: YT (IL-2 2.5 ng/mL); experiment: as above; details: 72 h
[24] = tested on: KHYG-1 (IL-2 2.5 ng/mL); experiment: as above; details: 72 h
[25] = tested on: IMC-1 (IL-2 20 ng/mL); experiment: as above; details: 72 h
[26] = tested on: NK-YS (IL-2 2.5 ng/mL); experiment: as above; details: 72 h
[27] = tested on: normal primary NK cells, pool 2 (3 donors) (IL-2 2.5 ng/mL); experiment: as above; details: 72 h
[28] = tested on: NK-92 (IL-2 2.5 ng/mL); experiment: as above; details: 72 h

C[C@@H](Oc1ccc2[nH]nc(/C=C/c3cnn(CCO)c3)c2c1)c1c(Cl)cncc1Cl (max concentration tested 1000 nM)
Details	drug sensitivity score
[1]	20.3
[16]	11.6
[17]	11.4
[18]	19.4
[19]	0.82
[20]	20.8
[21]	12.7
[22]	17.6
[23]	6.34
[24]	21.6
[25]	8.86
[26]	12.9
[27]	15.3
[28]	12.9

percent inhibition of viability [%]
Details	0.1 nM	1 nM	10 nM	100 nM	1000 nM
[2]	-4.25	-1.44	12.1	50	100
[3]	-3.85	-11	2.43	60.1	72.1
[4]	-5.85	0.25	37.2	79.9	84.6
[5]	-1.49	-11.6	-11.3	13.6	13.4
[6]	-12	0.34	23.3	95	92.3
[7]	-11.8	-16.6	7.47	63.4	69.5
[8]	2.24	4.1	25	79.6	90.2
[9]	-2.34	-5.3	-2.2	9.63	85.6
[10]	-1.37	-1.77	23.3	101	98.7
[11]	2.17	-5.43	-8.61	21.8	98.1
[12]	-6.71	-5.42	10.9	60.3	93
[13]	-12.2	-5.79	27.6	62.9	71.7
[14]	-7.71	-11	4.63	65.8	84.5
[15]	-0.71	-1.93	22.3	94.3	97.8
